Laboratory results published in PMC4821856, “Novel Anti-Campylobacter Compounds Identified Using High Throughput Screening of a Pre-selected Enriched Small Molecules Library” (Frontiers in Microbiology, 2016).
Values after ≈ are worked out from the molar mass of the structure shown. Like-named read-outs stand apart in the source and are kept apart here.

What was measured:
C. jejuni 81–176 [1] = assay: Minimum bactericidal concentration (MBC); assay type: cell-based, Campylobacter jejuni; conditions: for MBC: Campylobacter jejuni, read-out: C. jejuni MBC (minimum bactericidal concentration)
Procedure: (§1) The percentage of C. jejuni growth inhibition was calculated as mentioned previously (De La Fuente et al., [2006]) using the following formula: percentage of inhibition = 100 × (OD negative control–OD test compound)/(OD negative control–OD positive control). Compounds that inhibited Campylobacter growth ≥ 99.0% were selected as primary hits. The culture in wells with ≥ 99% growth inhibition were streaked onto fresh MH agar, as were the sterility, antibiotic and no compound control wells. Bacterial growth was measured on the plate after 48 h at 42°C. Based on the recovery of C. jejuni on MH agar plates, the compound was classified as either “bacteriostatic” or “bactericidal.”
(§2) Minimum inhibitory concentration value not necessarily indicates the killing concentration; therefore, we determined MBC for the top-12 compounds. MBC is defined as the concentration at which 99.9% (below detection limit) of Campylobacter organisms are killed. The MBC for each of these compounds were determined as described previously (Ling et al., [2015]). […] Overall MIC and MBC values were higher for C. coli compared to C. jejuni strain. The MIC and MBC for these 12 compounds for both C. jejuni and C. coli are presented in (Table 1).

C. jejuni 81–176 [2] = assay: Sequential passage resistance assay at sub-lethal dose (0.5X MIC), 15 passages; assay type: cell-based, Campylobacter jejuni; conditions: liquid MH with 0.5X MIC
Procedure: Single step and sequential passage resistance assays were performed as described previously with a few modifications (Ling et al., [2015]; Xu et al., [2015]). The top 12 hit compounds were tested in this experiment. The MIC values for each of these 12 compound as determined in above assay was used for C. jejuni resistance studies using lethal (5X MIC) and sub-lethal (0.5X MIC) concentrations.
Overnight grown C. jejuni 81–176 culture was washed and suspended in MH broth to an OD600 of 0.05 (~10^7 CFU). Five milli liter of the OD adjusted fresh culture was mixed with 0.5X MIC of the relevant test compound (concentration allowing > 50% growth inhibition). Campylobacter jejuni cultured in 20 μg/mL chloramphenicol, or 50 μg/mL kanamycin, or 2% DMSO, or non-amended MH broth were used as controls. The bacteria were incubated at 42°C with shaking at 200 rpm for 24 h in the dark. Following incubation, cultures were centrifuged at 4700 × g for 10 min at room temperature. The supernatant was discarded; bacteria were resuspended in 5 ml of fresh MH containing 0.5X MIC of the same small molecule. This procedure was repeated 14 times. Following 15 passages, bacterial suspensions were assessed for resistance to the test compound by plating on MH media containing 1X MIC of small molecules.
Our rationale for performing the resistance studies was to determine the ability of C. jejuni strain to develop resistance to these compounds when cultured on solid media with a lethal dose (5X MIC) or in liquid media with a sub-lethal dose (0.5X MIC). The presence of resistant colonies in any of these assays would reduce the attractiveness of the relevant small molecule while an absence of resistant colonies would indicate a likely inability of C. jejuni to develop resistance in general. […] Since C. jejuni is the major cause of human campylobacteriosis (95% of the cases); (Butzler, [2004]) and due to limitation of compounds availability, we only performed resistance studies on C. jejuni 81–176. However, for future commercial application of these antimicrobials, more in-depth characterization of potential resistance by other C. jejuni strains and C. coli is warranted.

C. jejuni 81–176 [3] = assay: Minimum inhibitory concentration (MIC), two-fold serial dilution, OD600 end point; assay type: cell-based; conditions: Campylobacter jejuni, 24 h, read-out: C. jejuni MIC (minimum inhibitory concentration)
Procedure: A primary screen was conducted using the highly invasive C. jejuni strain 81–176 originally isolated from a diarrheic patient (Korlath et al., [1985]). The C. jejuni strains were routinely grown on Mueller-Hinton (MH; Becton Dickinson and Company, MD) agar under microaerobic conditions (85% N2, 10% CO2, and 5% O2) in a DG250 Microaerophilic Workstation (Microbiology International, MD) for 18 h, washed with MH broth and adjusted to a final OD600 of 0.1 in MH broth. One hundred micro liter of culture was transferred to 96-well plates and 1 μL (200 μM/μL) of library compounds and controls were added using a pin tool (Wallace et al., [2011]). Growth controls including DMSO (1% final concentration), kanamycin (50 μg), and chloramphenicol (20 μg) were added to duplicate wells along with 100 μL un-inoculated MH broth as sterility control. The final concentration was 200 μM for each small molecule. Prior to growth, an aluminum foil was applied (to avoid drug degradation) and plates were then incubated at 42°C, under microaerobic conditions for 24 h. The end-point OD600 was measured in a Sunrise TM Tecan plate reader (Tecan Group Ltd. San Jose, CA). We initially tried to exploit the automatic kinetic OD reader option of the Sunrise TM Tecan system but were un-successful. Maintenance of the microaerophilic growth conditions required by C. jejuni was difficult in the Tecan reader which is ideally suited for aerobic bacteria. Therefore, we used an end point assay. The quality of high-throughput screen (HTS) was evaluated by calculating the Z′-factor as described previously (Zhang et al., [1999]). Z′-factor is defined as 1−((3σp + 3σn)/|μp − μn|)) where “σp” and “σn” are the standard deviations of the positive (culture+ DMSO) and negative (culture+antibiotics) controls, respectively and “μp” and “μn” are the means of the positive and negative controls, respectively. A Z′-factor >0.5 indicates a robust assay (Zhang et al., [1999]).
as §1
(§3) The dose-dependent effect of 35 compounds against the highly pathogenic C. jejuni 81–176 strain was tested. Compounds were two-fold serially diluted (200 to 12.5 μM). One hundred micro liter of the OD600 0.1 adjusted C. jejuni culture was pipetted in to each well of a 96 well plate, treated with 1 μL of diluted compound and the plate was incubated at 42°C under microaerobic conditions for 24 h. Growth inhibition was assessed as above.
The minimal concentrations of compounds that inhibit the growth of C. jejuni were tested by two-fold serial dilution of each of compound in media as well as in DMSO. The results were reproducible irrespective of diluent used; however, a few compounds precipitated when media was used as a diluent. A recent study also described the in-solubility issues with a few small molecule compounds when dissolved in media for MIC determination (Selin et al., [2015]). […] Among the 21 compounds, 16 were effective at 50 μM, 7 were effective at 25 μM, and 4 were effective at 12.5 μM. We selected top-12 bactericidal compounds with MICs varying from 100 to 12.5 μM concentration for further downstream study.

C. coli ATCC 33559 [4] = assay: Minimum inhibitory concentration (MIC); assay type: cell-based
Procedure: as §3
(§4) Initially we re-confirmed the efficacy of the 79 resynthesized compounds against C. jejuni 81–176 and C. coli ATCC 33559.
as §2

C. coli ATCC 33559 [5] = assay: Minimum bactericidal concentration (MBC); assay type: cell-based, Campylobacter coli; conditions: for MBC: Campylobacter coli
Procedure: as §4, §2

[6] = concentration at which 99.9% of organisms are killed
[7] = C. jejuni 81–176, 42°C microaerobic, dilution 200 to 12.5 μM
[8] = Campylobacter coli, ATCC33559; read-out: C. coli MIC
[9] = ATCC33559, concentration at which 99.9% of organisms are killed, read-out: C. coli MBC
[10] = Campylobacter coli, ATCC33559, read-out: C. coli MIC
[11] = ATCC33559, read-out: C. coli MBC

SMILES | MBC relative to MIC for C. jejuni (C. jejuni 81–176 [1]) | MBC (C. jejuni 81–176 [1]; [6]) [µM] | Resistance, passage 0.5X MIC (C. jejuni 81–176 [2]) | MIC (C. jejuni 81–176 [3]; [7]) [µM] | MIC (C. coli ATCC 33559 [4]; [8]) [µM] | MBC relative to MIC for C. coli (C. coli ATCC 33559 [5]) | MBC (C. coli ATCC 33559 [5]; [9]) [µM] | MBC (C. jejuni 81–176 [1]) [µM] | MIC (C. jejuni 81–176 [3]) [µM] | MIC (C. coli ATCC 33559 [4]; [10]) [µM] | MBC (C. coli ATCC 33559 [5]; [11]) [µM]
O=S(=O)(Nc1cccc(C(F)(F)F)c1)c1ccc(Br)cc1 [Comp 1] | same as that of their MIC | 50 (≈ 19 µg/mL) | No | 50 (≈ 19 µg/mL) | 50 (≈ 19 µg/mL) | same as that of their MIC | 50 (≈ 19 µg/mL) | – | – | – | –
COc1ccc(CN2CCN(c3ccc(F)cc3)CC2)cc1C [Comp 2] | same as that of their MIC | – | No | – | – | two-fold higher | – | 100 (≈ 31.4 µg/mL) | 100 (≈ 31.4 µg/mL) | 50 (≈ 15.7 µg/mL) | 100 (≈ 31.4 µg/mL)
CN(C)c1ccc(CN2CCN(c3ccccc3Cl)CC2)cc1 [Comp 3] | two-fold higher | – | No | – | – | same as that of their MIC | – | 25 (≈ 8.25 µg/mL) | 12.5 (≈ 4.12 µg/mL) | 50 (≈ 16.5 µg/mL) | 50 (≈ 16.5 µg/mL)
Clc1ccc(N2CCN(Cc3ccsc3)CC2)cc1 [Comp 4] | same as that of their MIC | 50 (≈ 14.6 µg/mL) | No | 50 (≈ 14.6 µg/mL) | 50 (≈ 14.6 µg/mL) | two-fold higher | 100 (≈ 29.3 µg/mL) | – | – | – | –
Cc1ccc(N2CCN(C/C=C/c3ccccc3)CC2)cc1 [Comp 5] | same as that of their MIC | 50 (≈ 14.6 µg/mL) | No | 50 (≈ 14.6 µg/mL) | 50 (≈ 14.6 µg/mL) | same as that of their MIC | 50 (≈ 14.6 µg/mL) | – | – | – | –
O=c1c(Cl)c(Cl)cnn1-c1ccccc1Cl [Comp 7] | same as that of their MIC | 12.5 (≈ 3.44 µg/mL) | No | 12.5 (≈ 3.44 µg/mL) | 50 (≈ 13.8 µg/mL) | same as that of their MIC | 50 (≈ 13.8 µg/mL) | – | – | – | –
Cc1c(C(C)NCc2cccc(OC3CCCC3)c2)cnn1-c1ccccc1 (stereo not drawn) [Comp 10] | same as that of their MIC | 50 (≈ 18.8 µg/mL) | No | 50 (≈ 18.8 µg/mL) | 100 (≈ 37.6 µg/mL) | same as that of their MIC | 100 (≈ 37.6 µg/mL) | – | – | – | –
COc1ccc(CNCc2ccc(Cl)s2)cc1OCC(O)CN1CCCC1 (stereo not drawn) [Comp 12] | same as that of their MIC | 100 (≈ 41.1 µg/mL) | No | 100 (≈ 41.1 µg/mL) | 50 (≈ 20.5 µg/mL) | two-fold higher | 100 (≈ 41.1 µg/mL) | – | – | – | –
CN(Cc1cccc2cnccc12)CC1CCCN(CCc2ccc(F)cc2)C1 (stereo not drawn) [Comp 13] | two-fold higher | 25 (≈ 9.79 µg/mL) | No | 12.5 (≈ 4.89 µg/mL) | 50 (≈ 19.6 µg/mL) | same as that of their MIC | 50 (≈ 19.6 µg/mL) | – | – | – | –
CN(CC(O)COc1ccccc1CNC1(c2ccccc2)CC1)C1CCCCC1 (stereo not drawn) [Comp 17] | two-fold higher | 25 (≈ 10.2 µg/mL) | No | 12.5 (≈ 5.11 µg/mL) | 50 (≈ 20.4 µg/mL) | same as that of their MIC | 50 (≈ 20.4 µg/mL) | – | – | – | –
CN(Cc1ccccc1)CC1CCCN(CCc2ccc(F)cc2)C1 (stereo not drawn) [Comp 18] | same as that of their MIC | 25 (≈ 8.51 µg/mL) | No | 25 (≈ 8.51 µg/mL) | 200 (≈ 68.1 µg/mL) | two-fold higher | > 200 | – | – | – | –
CC(=O)Nc1ccc(CN(C)CC2CCCN(CCc3cccc(C(F)(F)F)c3)C2)cc1 (stereo not drawn) [Comp 22] | two-fold higher | 25 (≈ 11.2 µg/mL) | No | 12.5 (≈ 5.59 µg/mL) | 100 (≈ 44.8 µg/mL) | same as that of their MIC | 100 (≈ 44.8 µg/mL) | – | – | – | –
